The values below come from patent US8648092B2, “Imidazo[1,2-a]pyridine derivatives: preparation and pharmaceutical applications” (MEI Pharma, priority 2005, dated 2014).

By GI50 is commonly meant the concentration that inhibits growth by half. A higher GI50 goes with lower sensitivity of the cells. By IC50 is commonly meant the concentration that gives 50% inhibition.

Molecules are shown by their SMILES.

One experiment has as its system Colo205 cells. In words: Cell-based proliferation assay for determination of GI50 values (CyQUANT). Details: species or system human. A digest of the protocol:
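Colo205 cells in RPMI 1640 with 5% FBS, seeded 5000/well and grown 24 h at 37 °C. Exposure to compound lasted 96 h, with growth read by CyQUANT. GI50 = concentration giving 50% growth inhibition, from dose-response curves.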

The target in experiment [1] is HDAC1 enzyme (recombinant GST-HDAC1) (Homo sapiens (Human), UniProt Q13547). Briefly: In vitro HDAC assay for determination of IC50 values (BIOMOL fluorescent-based HDAC activity assay). Conditions: Flur de lys substrate, 2 h room temperature, read-out: IC50 (HDAC 1). The experiment is classed as biochemical. The method in brief:
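Recombinant human GST-HDAC1, baculovirus-expressed in SF9 cells and glutathione-purified, tested with a fluorogenic deacetylase substrate; Fluor de Lys developer added for 10 min. Fluorescence at 360 nm excitation/460 nm emission; IC50 fitted from a concentration series.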

The mark [2] stands for this setting: Homo sapiens, COLO 205, 96 h treatment.
[3] abbreviates: Homo sapiens, COLO 205, 96 h, 96 h treatment.

HDAC1 enzyme (recombinant GST-HDAC1), sequence (Q13547 whole entry): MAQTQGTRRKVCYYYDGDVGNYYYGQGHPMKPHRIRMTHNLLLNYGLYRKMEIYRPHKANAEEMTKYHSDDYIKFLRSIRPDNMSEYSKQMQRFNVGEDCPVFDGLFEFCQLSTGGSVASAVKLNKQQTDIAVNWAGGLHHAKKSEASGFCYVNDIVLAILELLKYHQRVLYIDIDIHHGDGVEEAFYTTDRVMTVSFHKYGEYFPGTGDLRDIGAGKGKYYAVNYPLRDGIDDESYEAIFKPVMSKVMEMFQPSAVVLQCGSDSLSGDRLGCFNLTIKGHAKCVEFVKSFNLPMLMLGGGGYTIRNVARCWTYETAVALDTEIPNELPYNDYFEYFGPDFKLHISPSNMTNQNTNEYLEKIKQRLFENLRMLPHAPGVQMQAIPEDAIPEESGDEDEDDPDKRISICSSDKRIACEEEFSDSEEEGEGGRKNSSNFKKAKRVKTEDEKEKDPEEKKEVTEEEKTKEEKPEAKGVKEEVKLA

As for `CCC(CC)CN(CC)Cc1c(C)nc2cc(/C=C/C(=O)NO)ccn12` [Compound 101, 3-(3-{[Ethyl-(2-ethyl-butyl)-amino]-methyl}-2-methyl-imidazo[1,2-a]pyridin-7-yl)-N-hydroxy-acrylamide], in the experiment with Colo205 cells (setting [2]), it took 0.05 µM to inhibit growth by half (GI50). Further, the IC50 in experiment [1] stood at 0.01 µM.
In turn, `CCCCCCc1nc2cc(/C=C/C(=O)NO)ccn2c1NCCC(=O)NCCCC` [Compound 21, 3-[3-(2-Butylcarbamoyl-ethylamino)-2-hexyl-imidazo[1,2-a]pyridin-7-yl]-N-hydroxy-acrylamide] returned a GI50 in the experiment on Colo205 cells (setting [2]) of 13 µM. Also, the IC50 in experiment [1] was 0.13 µM.
Take `CCCCc1nc2cc(/C=C/C(=O)NO)ccn2c1CN(CC)CC(C)C` [Compound 112, 3-{2-Butyl-3-[(ethyl-isobutyl-amino)-methyl]-imidazo[1,2-a]pyridin-7-yl}-N-hydroxy-acrylamide]: in the experiment with Colo205 cells (setting [2]), it took 0.57 µM to inhibit growth by half (GI50). For the same compound, the IC50 in experiment [1] was found to be 0.09 µM.
`O=C(/C=C/c1ccn2cc(-c3ccccc3)nc2c1)NO` [Compound 34, N-Hydroxy-3-(2-phenyl-imidazo[1,2-a]pyridin-7-yl)-acrylamide]: the GI50 with Colo205 cells (setting [2]) amounted to 42 µM. The IC50 in experiment [1] was 0.87 µM.
`CCCCN(C)Cc1c(-c2ccccc2)nc2cc(/C=C/C(=O)NO)ccn12` [Compound 71, 3-{3-[(Butyl-methyl-amino)-methyl]-2-phenyl-imidazo[1,2-a]pyridin-7-yl}-N-hydroxy-acrylamide] had a 50% growth inhibitory concentration (GI50) in the experiment with Colo205 cells (setting [2]) of 1 µM. For the same compound, in experiment [1], the IC50 was found to be 0.12 µM.
`O=C(/C=C/c1ccc2nc(CCc3ccccc3)c(NC3CCCCC3)n2c1)NO` [Compound 6, 3-(3-Cyclohexylamino-2-phenethyl-imidazo[1,2-a]pyridin-6-yl)-N-hydroxy-acrylamide] registered a GI50 with Colo205 cells (setting [2]) of 42 µM. Further, the IC50 in experiment [1] came out at 1.4 µM.
As to `CCN(Cc1c(C(C)(C)C)nc2cc(/C=C/C(=O)NO)ccn12)CC1CC1` [Compound 97, 3-{2-tert-Butyl-3-[(cyclopropylmethyl-ethyl-amino)-methyl]-imidazo[1,2-a]pyridin-7-yl}-N-hydroxy-acrylamide], the GI50 in the experiment on Colo205 cells (setting [2]) turned out to be 2.1 µM. Moreover, the half-inhibitory concentration (IC50) in experiment [1] was determined as 0.33 µM.
For `CCCCCCc1nc2cc(/C=C/C(=O)NO)ccn2c1NCCC(=O)NCCN(CC)CC` [Compound 28, 3-{3-[2-(2-Diethylamino-ethylcarbamoyl)-ethylamino]-2-hexyl-imidazo[1,2-a]pyridin-7-yl}-N-hydroxy-acrylamide] the same measures were 7.3 µM and 0.11 µM.
Regarding `CCCN(Cc1c(C)nc2cc(C=CC(=O)NO)ccn12)CC(C)(C)C` [Compound 110, 3-(3-{[(2,2-Dimethyl-propyl)-propyl-amino]-methyl}-2-methyl-imidazo[1,2a]pyridin-7-yl)-N-hydroxy-acrylamide], it took 0.7 µM to inhibit growth in the experiment on Colo205 cells (96 h treatment) by half (GI50). In addition, in experiment [1], the IC50 was 0.13 µM.
In the experiment with Colo205 cells (setting [2]), `CCCC(C)CN(CC)Cc1c(C(C)(C)C)nc2cc(/C=C/C(=O)NO)ccn12` (stereo not drawn) [Compound 91, 3-(2-tert-Butyl-3-{[ethyl-(2-methyl-pentyl)-amino]-methyl}-imidazo[1,2-a]pyridin-7-yl)-N-hydroxy-acrylamide] registered a GI50 of 2.1 µM. Moreover, the IC50 in experiment [1] came out at 0.47 µM.
As for `CCN(Cc1c(C(C)(C)C)nc2cc(/C=C/C(=O)NO)ccn12)CC1CCOC1` (stereo not drawn) [Compound 96, 3-(2-tert-Butyl-3-{[ethyl-(tetrahydro-furan-3-ylmethyl)-amino]-methyl}-imidazo[1,2-a]pyridin-7-yl)-N-hydroxy-acrylamide], the 50% growth inhibitory concentration (GI50) with Colo205 cells (setting [2]) was found to be 3.4 µM. The IC50 in experiment [1] was 0.37 µM.
In the experiment on Colo205 cells (setting [2]), `CCCc1nc2cc(/C=C/C(=O)NO)ccn2c1CN(CC)CCC(C)C` [Compound 126, 3-(3-{[Ethyl-(3-methyl-butyl)-amino]-methyl}-2-propyl-imidazo[1,2-a]pyridin-7-yl)-N-hydroxy-acrylamide] displayed a 50% growth inhibitory concentration (GI50) of 0.08 µM. Also, the IC50 in experiment [1] was found to be 0.03 µM.
On to `CCN(Cc1c(C)nc2cc(C=CC(=O)NO)ccn12)CC(C)(C)C` [Compound 111, 3-(3-{[(2,2-Dimethyl-propyl)-ethyl-amino]-methyl}-2-methyl-imidazo[1,2a]pyridin-7-yl)-N-hydroxy-acrylamide], for which, in the experiment on Colo205 cells (96 h treatment), halving of growth (GI50) required 0.6 µM. Further, in experiment [1], the IC50 came out at 0.05 µM.
Take `CCCN(Cc1c(C(C)(C)C)nc2cc(/C=C/C(=O)NO)ccn12)C(C)C` [Compound 102, 3-{2-tert-Butyl-3-[(isopropyl-propyl-amino)-methyl]-imidazo[1,2-a]pyridin-7-yl}-N-hydroxy-acrylamide]: the GI50 in the experiment with Colo205 cells (setting [2]) was determined as 2.5 µM. Further, in experiment [1], the IC50 is 0.3 µM.
Regarding `CCCCCc1nc2cc(/C=C/C(=O)NO)ccn2c1CN(CC)CCCC` [Compound 129, 3-{3-[(Butyl-ethyl-amino)-methyl]-2-pentyl-imidazo[1,2-a]pyridin-7-yl}-N-hydroxy-acrylamide], in the experiment on Colo205 cells (setting [3]), growth was halved (GI50) at 0.15 µM. In experiment [1], the IC50 came to 0.04 µM.
`CC1CN(Cc2c(-c3ccccc3)nc3cc(/C=C/C(=O)NO)ccn23)CC(C)O1` (stereo not drawn) [Compound 55, 3-[3-(2,6-Dimethyl-morpholin-4-ylmethyl)-2-phenyl-imidazo[1,2-a]pyridin-7-yl]-N-hydroxy-acrylamide] showed a GI50 in the experiment with Colo205 cells (setting [2]) of 9.3 µM. Also, in experiment [1], the IC50 was found to be 2.4 µM.
For the compound `CCCCc1nc2cc(/C=C/C(=O)NO)ccn2c1CN(CC)CCC(C)(C)C` [Compound 117, 3-(2-Butyl-3-{[(3,3-dimethyl-butyl)-ethyl-amino]-methyl}-imidazo[1,2-a]pyridin-7-yl)-N-hydroxy-acrylamide], halving of growth in the experiment with Colo205 cells (setting [2]) (GI50) required 0.14 µM. Moreover, the IC50 in experiment [1] is 0.03 µM.
`CC(C)(C)CNCc1c(-c2ccccc2)nc2cc(/C=C/C(=O)NO)ccn12` [Compound 59, 3-{3-[(2,2-Dimethyl-propylamino)-methyl]-2-phenyl-imidazo[1,2-a]pyridin-7-yl}-N-hydroxy-acrylamide]: in the experiment with Colo205 cells (setting [2]), growth was halved (GI50) at 2.1 µM. Further, the IC50 in experiment [1] was determined as 0.23 µM.
`CCCc1nc2cc(/C=C/C(=O)NO)ccn2c1CN(CC)CCC(C)(C)C` [Compound 127, 3-(3-{[(3,3-Dimethyl-butyl)-ethyl-amino]-methyl}-2-propyl-imidazo[1,2-a]pyridin-7-yl)-N-hydroxy-acrylamide] came in with a GI50 in the experiment with Colo205 cells (setting [3]) of 0.07 µM. Besides, the IC50 in experiment [1] was found to be 0.02 µM.
In turn, `CC(C)(C)NCc1c(C(C)(C)C)nc2cc(/C=C/C(=O)NO)ccn12` [Compound 69, 3-[2-tert-Butyl-3-(tert-butylamino-methyl)-imidazo[1,2-a]pyridin-7-yl]-N-hydroxy-acrylamide] came in with a GI50 in the experiment on Colo205 cells (setting [2]) of 0.74 µM. Further, the IC50 in experiment [1] is 0.13 µM.
As for `CCN(Cc1c(-c2ccccc2)nc2cc(/C=C/C(=O)NO)ccn12)CC(F)(F)F` [Compound 105, 3-(3-{[Ethyl-(2,2,2-trifluoro-ethyl)-amino]-methyl}-2-phenyl-imidazo [1,2-a]pyridin-7-yl)-N-hydroxy-acrylamide], the GI50 in the experiment on Colo205 cells (setting [2]) worked out at 44 µM. In experiment [1], the IC50 is 7.4 µM.
In the case of `CCCN(CC)Cc1c(-c2ccccc2)nc2cc(/C=C/C(=O)NO)ccn12` [Compound 52, 3-{3-[(Ethyl-propyl-amino)-methyl]-2-phenyl-imidazo[1,2-a]pyridin-7-yl}-N-hydroxy-acrylamide], the GI50 with Colo205 cells (setting [2]) worked out at 1.2 µM. The IC50 in experiment [1] is 0.24 µM.
Compound `CCN(CC)CCNCc1c(-c2ccccc2)nc2cc(/C=C/C(=O)NO)ccn12` [Compound 47, 3-{3-[(2-Diethylamino-ethylamino)-methyl]-2-phenyl-imidazo[1,2a]pyridin-7-yl}-N-hydroxy-acrylamide] yielded a GI50 with Colo205 cells (setting [2]) of 30 µM. Further, the IC50 in experiment [1] came to 0.65 µM.
Regarding `CCCCCc1nc2cc(/C=C/C(=O)NO)ccn2c1CN(CC)CCC(C)C` [Compound 130, 3-(3-{[Ethyl-(3-methyl-butyl)-amino]-methyl}-2-pentyl-imidazo[1,2-a]pyridin-7-yl)-N-hydroxy-acrylamide], in the experiment on Colo205 cells (setting [3]), it took 0.14 µM to inhibit growth by half (GI50). The IC50 in experiment [1] came to 0.03 µM.
`CCCN(CCO)Cc1c(-c2ccccc2)nc2cc(/C=C/C(=O)NO)ccn12` [Compound 48, N-Hydroxy-3-(3-{[(2-hydroxy-ethyl)-propyl-amino]-methyl}-2-phenyl-imidazo[1,2-a]pyridin-7-yl)-acrylamide] returned a GI50 in the experiment on Colo205 cells (setting [2]) of 9.2 µM. Further, the IC50 in experiment [1] was determined as 1 µM.
The compound `CCCCN(CC)Cc1c(CCC(C)C)nc2cc(/C=C/C(=O)NO)ccn12` [Compound 141, 3-[3-[(Butyl-ethyl-amino)-methyl]-2-(3-methyl-butyl)-imidazo[1,2a]pyridin-7-yl]-N-hydroxy-acrylamide] returned a GI50 in the experiment with Colo205 cells (setting [2]) of 0.16 µM. The IC50 in experiment [1] was determined as 0.04 µM.
In the experiment with Colo205 cells (setting [3]), `CCN(CCC(C)C)Cc1c(C(C)(C)C)nc2cc(/C=C/C(=O)NO)ccn12` [Compound 89, 3-(2-tert-Butyl-3-{[ethyl-(3-methyl-butyl)-amino]-methyl}-imidazo[1,2-a]pyridin-7-yl)-N-hydroxy-acrylamide] yielded a concentration for 50% growth inhibition (GI50) of 0.35 µM. Further, in experiment [1], the IC50 amounted to 0.06 µM.
Regarding `CCNCc1c(C(C)(C)C)nc2cc(/C=C/C(=O)NO)ccn12` [Compound 84, 3-(2-tert-Butyl-3-ethylaminomethyl-imidazo[1,2-a]pyridin-7-yl)-N-hydroxy-acrylamide], in the experiment with Colo205 cells (setting [2]), the GI50 came to 0.47 µM. In experiment [1], the IC50 stood at 0.06 µM.
In the experiment on Colo205 cells (setting [2]), `CCCCN(CC)Cc1c(C)nc2cc(/C=C/C(=O)NO)ccn12` [Compound 99, 3-{3-[(Butyl-ethyl-amino)-methyl]-2-methyl-imidazo[1,2-a]pyridin-7-yl}-N-hydroxy-acrylamide] displayed a GI50 of 0.18 µM. For the same compound, the half-inhibitory concentration (IC50) in experiment [1] worked out at 0.03 µM.
The compound `CCCCc1nc2cc(/C=C/C(=O)NO)ccn2c1CN(CC)CC(C)(C)C` [Compound 115, 3-(2-Butyl-3-{[(2,2-dimethyl-propyl)-ethyl-amino]-methyl}-imidazo[1,2-a]pyridin-7-yl)-N-hydroxy-acrylamide] had a GI50 with Colo205 cells (setting [2]) of 0.95 µM. In addition, the IC50 in experiment [1] was 0.16 µM.
